According to patent US20190307783A1, “USE OF ANTIVIRALS TO INHIBIT PROTOZOAN VIRUSES” (priority 2016, published 2019):
Read-outs that look alike come from different tables or passages of the source.

System: LRV1 (LgyLRV1 capsid levels)
Assay: organism not typed
Details: for LgyLRV1− population in washout, of total cell population / Parasites with LgyLRV1+ capsid levels in washout population: then drug-free media

**Q.** With `C[C@@]1(O)[C@H](O)[C@@H](CO)O[C@H]1n1cnc2c(N)ncnc21` [2′C-methyadenosine, 2′-C-methyladenosine] as the molecule, how does the “LgyLRV1− population in washout, of total cell population” value (100 μM for four doublings) read?
**A.** 50%

**Q.** What about the “Parasites with LgyLRV1+ capsid levels in washout population” value (100 μM for four doublings) of the same molecule?
**A.** 36%

**Q.** What about the “LgyLRV1− population in washout, of total cell population” value (100 μM for three doublings) of the same molecule?
**A.** 31%

**Q.** What about the “Parasites with LgyLRV1+ capsid levels in washout population” value (100 μM for three doublings) of the same molecule?
**A.** 55%

**Q.** What about the “Fold less LRV1 capsid expression” value (100 μM maintained for four cell doublings) of the same molecule?
**A.** 16 fold

**Q.** What about the “Fold less LRV1 capsid expression” value (100 μM maintained for three cell doublings) of the same molecule?
**A.** 8 fold

**Q.** What about the “Loss of LRV1 capsid and RNA at every cell doubling” value (100 μM, capsid flow cytometry and qRT-PCR) of the same molecule?
**A.** 50%

**Q.** What about the EC50 (48 h, read-out: EC50 for 2CMA inhibition of LRV1 in the presence of allopurinol) of the same molecule?
**A.** ~3000 nM

**Q.** And the activity at 100 µM (48 h, read-out: Percent control (LRV1 capsid))?
**A.** 7%

**Q.** What about the “Selectivity for LRV1 versus L. guyanensis growth inhibition” value (EC50 growth vs EC50 LRV1 capsid) of the same molecule?
**A.** at least 30 fold

**Q.** What about the “LRV1 capsid (geometric mean FU)” value (LgyLRV1+, tested at 100 μM, 2 days) of the same molecule?
**A.** 19 FU

**Q.** What about the EC50 (read-out: EC50 for LRV1 capsid inhibition) of the same molecule?
**A.** ~3000 nM

**Q.** What about the “Reduction in LRV1 capsid levels” value (tested at 100 μM) of the same molecule?
**A.** 12 fold
